Assay results as given in PMC10476022 (RSC Advances, 2023).
Entries after “also recorded” stand apart in the source; their conditions may differ.

What was measured:
[1] = Antioxidant potential by DPPH assay
Text: Assessment of the toxicity is the prerequisite study for the synthetic derivatives. […] AChE enzyme provides the site for the aggregation of the Aβ1–42.

hBuChE = target: T1, hBuChE (Homo sapiens, UniProt P06276); test: biochemical; format: biochemical; conditions: for IC50: tris-HCl buffer pH 8.0, read-out: IC50 ± SE hBuChE
T1 construct: purchased Sigma Aldrich
Method: (§1) Himedia supplied Acetylthiocholine iodide (AthCI), Butyrylthiocholine iodide (BthCI), and 5,5′-dithiobis (2-nitrobenzoic acid) (DTNB-reagent). […] AChE (50 μL, 1.00 U mL^−1) or BuChE (50 μL, 0.6 U mL^−1) and 20 μL of the test or standard compounds were incubated in a 96 well plate for 30 minutes at room temperature. […] The IC50 values were determined by measuring the absorbance of the test and standard substances. Three independent runs of the assays were conducted in triplicate.

hAChE = target: T2, hAChE (Homo sapiens, UniProt P22303); test: biochemical; conditions: for Selectivity ratio: (IC50 of BuChE)/(IC50 of AChE); for IC50: tris-HCl buffer pH 8.0, read-out: IC50 ± SE hAChE
T2 construct: purchased Sigma Aldrich
Method: as §1

Aβ1–42 = system: T3, Aβ1–42; test: AChE-induced Aβ1–42 aggregation assay (ThT); format: biochemical
T3 construct: Aβ1–42, purchased from Sigma, was dissolved in 10 mM phosphate buffer; purchased Sigma
Method: The Aβ oligomers and aggregates formed with or without AChE and metal ions induce multifaceted toxicity leading to neuronal cell death. […] Aβ1–42, purchased from Sigma, was dissolved in 10 mM phosphate buffer (PBS) of pH 7.5 to get a stock concentration of […]. The test compounds were dissolved in the DMSO and further diluted with PBS. Different proportions of the Aβ1-42: Inhibitor (1 : 0.05, 1 : 1, 1 : 2) were used in the ThT assay. […] The mixtures were incubated at room temperature for 48 hours in the dark.

SH-SY5Y cell line = test: Cell line-based toxicity study (MTT assay); conditions: 72 h
Method: In recent decades, in vitro cell line research has become commonplace since they are useful for primary optimization and mechanistic investigations before toxicological studies on animals.[29]
Briefly, the cell lines (density 1 × 10^4 cells per wells) were plated in 96 well plates and incubated for 24 h at 37 °C in a humidified atmosphere with 5% CO2. […] The absorbance was measured at 570 nm, and the percent cell viability was calculated. Each treatment was executed in triplicate and data were presented as a percentage of the control.

T2 sequence (P22303 32-614): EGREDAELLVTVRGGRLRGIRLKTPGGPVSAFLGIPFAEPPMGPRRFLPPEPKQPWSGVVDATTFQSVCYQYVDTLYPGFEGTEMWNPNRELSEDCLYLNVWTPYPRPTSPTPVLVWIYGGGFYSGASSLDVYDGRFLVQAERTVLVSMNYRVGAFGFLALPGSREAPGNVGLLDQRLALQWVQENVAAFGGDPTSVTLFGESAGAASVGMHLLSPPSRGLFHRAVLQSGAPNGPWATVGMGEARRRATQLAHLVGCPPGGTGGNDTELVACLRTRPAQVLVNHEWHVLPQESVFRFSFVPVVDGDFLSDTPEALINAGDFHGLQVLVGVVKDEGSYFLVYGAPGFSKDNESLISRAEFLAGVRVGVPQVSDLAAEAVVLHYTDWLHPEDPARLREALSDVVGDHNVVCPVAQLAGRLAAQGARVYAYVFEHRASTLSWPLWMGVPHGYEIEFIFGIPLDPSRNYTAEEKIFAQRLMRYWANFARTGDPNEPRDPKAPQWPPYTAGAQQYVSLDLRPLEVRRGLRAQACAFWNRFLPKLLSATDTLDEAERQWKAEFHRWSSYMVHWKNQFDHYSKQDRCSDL

| Structure (SMILES) | % free radicle scavenging, mean ± SE ([1]; 50 μM) [%] | % free radicle scavenging, mean ± SE ([1]; 100 μM) [%] | IC50 (hBuChE) [µM] | Selectivity ratio (hAChE) | IC50 (hAChE) [µM] | BuChE inhibition (in words) (hBuChE) | effect on AChE-induced Aβ1–42 aggregation (in words) (Aβ1–42; 0.5, 10, 20 μM, 48 h incubation) | AChE-induced Aβ aggregation inhibited (Aβ1–42; tested at 0.5, 10 and 20 μM) [%] | concentration with no significant toxicity (SH-SY5Y cell line) [µM] |
| --- | --- | --- | --- | --- | --- | --- | --- | --- | --- |
| O=C1O[C@H]([C@@H](O)CO)C(O)=C1O [Ascorbic acid, reference compound] | 42.66 ± 1.491 | 76.76 ± 0.708 |  |  |  |  |  |  |  |
| COc1ccc2c(c1)c(CC(=O)NN=Cc1cccc(O)c1)c(C)n2C(=O)c1ccc(Cl)cc1 [IND-24, (1-(4-Chlorobenzoyl)-5-methoxy-2-methyl-1H-indol-3-yl)-N′-(3-hydroxybenzylidene) aceto-hydrazide] | 17.68 ± 0.478 | 34.34 ± 1.333 | 98.18 ± 0.12 | 7.83 | 12.5 ± 0.143 |  |  |  |  |
| COc1cccc(C=NNC(=O)Cc2c(C)n(C(=O)c3ccc(Cl)cc3)c3ccc(OC)cc23)c1 [IND-25, (1-(4-Chlorobenzoyl)-5-methoxy-2-methyl-1H-indol-3-yl)-N′-(3-methoxybenzylidene) aceto-hydrazide] | 11.51 ± 0.748 | 27.99 ± 1.127 | > 1000 |  | 264.23 ± 0.102 | inactive on the BuChE enzyme |  |  |  |
| COc1ccc2c(c1)c(CC(=O)NN=Cc1ccc(O)cc1)c(C)n2C(=O)c1ccc(Cl)cc1 [IND-30, (1-(4-Chlorobenzoyl)-5-methoxy-2-methyl-1H-indol-3-yl)-N′-(4-hydroxybenzylidene)aceto-hydrazide] | 15.19 ± 0.881 | 30.65 ± 1.010 | 95.34 ± 0.144 | 22.92 | 4.16 ± 0.063 |  | effective only at the higher dose (20 μM); also recorded: decreased Aβ aggregation in a concentration-dependent manner; also recorded: active at 20 μM | ~50 | ≤ 30000 |
| COc1ccc2c(c1)c(CC(=O)NN=Cc1ccccc1OC)c(C)n2C(=O)c1ccc(Cl)cc1 [IND-31, (1-(4-Chlorobenzoyl)-5-methoxy-2-methyl-1H-indol-3-yl)-N′-(2-methoxybenzylidene)aceto-hydrazide] | 9.75 ± 0.625 | 26.43 ± 0.887 | > 1000 |  | 421.22 ± 0.086 | inactive on hBuChE |  |  |  |
| COc1ccc2c(c1)c(CC(=O)NN=Cc1c(O)cccc1O)c(C)n2C(=O)c1ccc(Cl)cc1 [IND-40, (1-(4-Chlorobenzoyl)-5-methoxy-2-methyl-1H-indol-3-yl)-N′-(2,6-dihydroxybenzylidene)aceto-hydrazide] | 24.10 ± 0.889 | 50.39 ± 0.930 | 689.12 ± 0.128 | 9.77 | 70.54 ± 0.133 |  |  |  |  |
| COc1ccc2c(c1)c(CC(=O)NN=Cc1cccc(O)c1O)c(C)n2C(=O)c1ccc(Cl)cc1 [IND-42, (1-(4-Chlorobenzoyl)-5-methoxy-2-methyl-1H-indol-3-yl)-N′-(2,3-dihydroxybenzylidene)aceto-hydrazide] | 18.21 ± 0.598 | 38.87 ± 1.012 | 668.22 ± 0.133 | 5.44 | 122.75 ± 0.086 |  |  |  |  |
